Test results: ChEMBL document CHEMBL5143570, “Development of naringenin-O-carbamate derivatives as multi-target-directed liagnds for the treatment of Alzheimer's disease” (Bioorg Med Chem Lett, 2022)
The source made the active and inactive calls. No cut-off for these calls is given here.

Columns and labels:
Acetylcholinesterase [1] = target: T1, Acetylcholinesterase (Homo sapiens, UniProt P22303); assay: Pseudo-irreversible inhibition of human AChE assessed as restoration of enzyme activity at 0.1 time of IC50 concentration incubated for 120 mins by dilution method relative to control; parameters: scale not given: the % may be the effect or the level left
T1 sequence (P22303 whole entry): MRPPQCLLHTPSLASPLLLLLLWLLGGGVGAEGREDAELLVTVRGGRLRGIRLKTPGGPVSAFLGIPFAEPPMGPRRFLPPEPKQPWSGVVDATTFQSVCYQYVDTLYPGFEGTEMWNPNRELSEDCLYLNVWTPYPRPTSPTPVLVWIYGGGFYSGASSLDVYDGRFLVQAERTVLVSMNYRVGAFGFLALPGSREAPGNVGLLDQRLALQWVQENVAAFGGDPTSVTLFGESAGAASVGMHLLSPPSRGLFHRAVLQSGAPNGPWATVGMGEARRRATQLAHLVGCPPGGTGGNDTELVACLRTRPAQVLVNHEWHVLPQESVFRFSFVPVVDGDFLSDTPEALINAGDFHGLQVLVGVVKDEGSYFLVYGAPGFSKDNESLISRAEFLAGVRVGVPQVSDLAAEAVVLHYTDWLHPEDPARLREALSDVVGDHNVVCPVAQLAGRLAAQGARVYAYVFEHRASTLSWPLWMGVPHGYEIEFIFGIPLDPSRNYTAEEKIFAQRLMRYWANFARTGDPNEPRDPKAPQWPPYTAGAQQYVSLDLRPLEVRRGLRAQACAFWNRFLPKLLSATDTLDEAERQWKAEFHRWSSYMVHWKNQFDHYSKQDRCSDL

Acetylcholinesterase [2] = target: T2, Acetylcholinesterase (Rattus norvegicus, UniProt P37136); assay: Inhibition of rat cortex AChE using acetylthiocholine as substrate incubated for 15 mins by DTNB reagent based Ellman's method; format: tissue-based
T2 sequence (P37136 whole entry): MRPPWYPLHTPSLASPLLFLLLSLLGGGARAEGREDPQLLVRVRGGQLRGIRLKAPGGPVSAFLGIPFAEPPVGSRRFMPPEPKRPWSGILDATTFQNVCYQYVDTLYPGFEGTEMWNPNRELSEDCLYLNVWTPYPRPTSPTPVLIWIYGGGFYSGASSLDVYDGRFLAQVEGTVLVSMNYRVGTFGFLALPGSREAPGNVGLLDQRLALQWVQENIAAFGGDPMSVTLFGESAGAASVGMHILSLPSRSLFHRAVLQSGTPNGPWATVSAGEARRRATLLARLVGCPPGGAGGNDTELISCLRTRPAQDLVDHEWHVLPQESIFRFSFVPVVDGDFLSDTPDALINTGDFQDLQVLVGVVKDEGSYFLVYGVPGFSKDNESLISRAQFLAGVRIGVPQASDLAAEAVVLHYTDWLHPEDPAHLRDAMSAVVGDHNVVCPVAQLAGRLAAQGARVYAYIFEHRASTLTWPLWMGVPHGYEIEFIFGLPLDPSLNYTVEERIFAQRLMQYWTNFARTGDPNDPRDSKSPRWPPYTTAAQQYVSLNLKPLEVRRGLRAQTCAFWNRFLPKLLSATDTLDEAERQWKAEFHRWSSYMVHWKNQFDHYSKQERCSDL

Butyrylcholinesterase = Butyrylcholinesterase (Rattus norvegicus, UniProt Q9JKC1); assay: Inhibition of rat serum Butyrylcholine esterase using butyrylthiocholine as substrate incubated for 15 mins by DTNB reagent based Ellman's method; format: cell-free
Sequence of Butyrylcholinesterase (Q9JKC1 whole entry): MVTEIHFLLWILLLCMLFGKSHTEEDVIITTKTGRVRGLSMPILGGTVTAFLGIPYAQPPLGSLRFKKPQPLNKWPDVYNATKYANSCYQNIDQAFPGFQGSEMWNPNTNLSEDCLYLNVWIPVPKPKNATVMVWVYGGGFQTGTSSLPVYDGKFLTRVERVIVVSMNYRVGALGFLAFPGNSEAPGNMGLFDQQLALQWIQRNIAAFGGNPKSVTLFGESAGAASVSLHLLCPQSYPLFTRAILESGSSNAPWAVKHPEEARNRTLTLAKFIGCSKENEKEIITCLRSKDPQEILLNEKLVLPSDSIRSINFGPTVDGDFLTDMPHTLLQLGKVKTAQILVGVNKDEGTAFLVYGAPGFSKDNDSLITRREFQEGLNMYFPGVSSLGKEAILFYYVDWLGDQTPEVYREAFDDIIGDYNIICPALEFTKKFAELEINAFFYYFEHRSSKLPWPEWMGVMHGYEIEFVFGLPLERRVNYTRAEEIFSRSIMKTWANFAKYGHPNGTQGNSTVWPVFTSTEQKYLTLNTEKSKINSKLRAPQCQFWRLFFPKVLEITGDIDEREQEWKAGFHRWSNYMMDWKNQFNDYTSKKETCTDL

Rattus norvegicus = species on record: Rattus norvegicus; assay: Selectivity index, ratio of IC50 for inhibition of rat serum butyrylcholine esterase to IC50 for inhibition of rat cortex AChE
[3] = Antioxidant activity assessed as trolox equivalent of ORAC radical scavenging activity by ORAC-FL assay; format: functional
Acetylcholinesterase [4] = target: T1, Acetylcholinesterase; assay: Inhibition of human erythrocyte AChE using acetylthiocholine as substrate incubated for 15 mins by DTNB reagent based Ellman's method; format: cell-based
Cholinesterase = Cholinesterase (Homo sapiens, UniProt P06276); assay: Inhibition of human serum BuChE using butyrylthiocholine as substrate incubated for 15 mins by DTNB reagent based Ellman's method; format: cell-free
Sequence of Cholinesterase (P06276 whole entry): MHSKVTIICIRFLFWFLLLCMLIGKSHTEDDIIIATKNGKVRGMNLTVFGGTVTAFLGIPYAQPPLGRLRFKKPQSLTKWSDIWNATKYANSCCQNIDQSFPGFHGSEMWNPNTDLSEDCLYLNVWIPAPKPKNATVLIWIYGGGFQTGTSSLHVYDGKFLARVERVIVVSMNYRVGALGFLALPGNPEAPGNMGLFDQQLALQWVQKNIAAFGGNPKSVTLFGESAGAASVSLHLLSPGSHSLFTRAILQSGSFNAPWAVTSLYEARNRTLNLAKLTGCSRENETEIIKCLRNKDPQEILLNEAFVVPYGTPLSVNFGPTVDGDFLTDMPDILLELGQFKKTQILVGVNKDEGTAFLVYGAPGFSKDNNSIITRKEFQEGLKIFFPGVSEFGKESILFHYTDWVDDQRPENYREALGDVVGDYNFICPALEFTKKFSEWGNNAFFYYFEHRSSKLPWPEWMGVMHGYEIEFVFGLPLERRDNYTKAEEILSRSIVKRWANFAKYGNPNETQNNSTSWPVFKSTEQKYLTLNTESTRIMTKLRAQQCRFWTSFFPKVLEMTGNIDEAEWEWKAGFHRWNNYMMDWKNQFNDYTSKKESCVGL

Homo sapiens = species on record: Homo sapiens; assay: Selectivity index, ratio of IC50 for inhibition of human serum BuChE to IC50 for inhibition of human erythrocyte AChE
PC-12 [5] = assay: Neuroprotective activity against H2O2-induced cytotoxicity in rat PC-12 cells assessed as increase in cell viability at 100 uM by MTT assay relative to control; format: functional, cell-based
[6] = target: Amyloid-beta precursor protein (Homo sapiens) (UniProt P05067); assay: Inhibition of amyloid beta (1 to 42 ) (unknown origin) self-induced aggregation at 25 uM by thioflavin-T fluorescence method relative to control
Sequence of Amyloid-beta precursor protein (Homo sapiens) (P05067 whole entry): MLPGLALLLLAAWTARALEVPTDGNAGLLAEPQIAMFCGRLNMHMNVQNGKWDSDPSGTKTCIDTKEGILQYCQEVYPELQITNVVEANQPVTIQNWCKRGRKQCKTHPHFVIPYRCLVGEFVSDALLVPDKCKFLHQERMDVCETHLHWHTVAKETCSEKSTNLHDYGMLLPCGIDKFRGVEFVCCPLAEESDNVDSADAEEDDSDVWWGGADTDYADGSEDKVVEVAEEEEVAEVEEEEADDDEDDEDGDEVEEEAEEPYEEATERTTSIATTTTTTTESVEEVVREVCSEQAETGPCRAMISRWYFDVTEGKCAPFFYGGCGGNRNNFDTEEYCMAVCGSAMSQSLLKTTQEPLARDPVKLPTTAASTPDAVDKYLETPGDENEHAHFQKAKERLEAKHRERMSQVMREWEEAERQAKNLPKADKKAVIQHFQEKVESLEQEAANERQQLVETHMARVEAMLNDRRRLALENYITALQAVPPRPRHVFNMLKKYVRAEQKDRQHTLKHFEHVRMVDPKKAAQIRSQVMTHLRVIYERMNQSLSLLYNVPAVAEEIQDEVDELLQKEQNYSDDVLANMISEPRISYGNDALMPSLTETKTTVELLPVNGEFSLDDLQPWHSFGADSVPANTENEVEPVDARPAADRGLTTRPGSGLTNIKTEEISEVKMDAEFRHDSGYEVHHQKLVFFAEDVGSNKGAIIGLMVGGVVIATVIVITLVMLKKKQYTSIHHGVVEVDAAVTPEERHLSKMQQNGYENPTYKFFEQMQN

[7] = Effect on tau protein expression in pRK5-GFP-Tau plasmid transfected mouse HT-22 cells assessed as reduction in fluorescence intensity at 20 uM incubated for 24 hrs by fluorescence microscopic analysis (reference value: 36.8); format: functional
[8] = Effect on tau protein expression in pRK5-GFP-Tau plasmid transfected mouse HT-22 cells assessed as reduction in fluorescence intensity at 5 uM incubated for 24 hrs by fluorescence microscopic analysis (reference value: 36.8); format: functional
PC-12 [9] = assay: Neuroprotective activity against H2O2-induced cytotoxicity in rat PC-12 cells assessed as increase in cell viability at 5 uM by MTT assay relative to control; format: functional
HT-22 [10] = assay: Effect on APP protein expression in pEGFP-N1-APP plasmid transfected mouse HT-22 cells assessed as fluorescence intensity by measuring decrease in GFP level incubated for 24 hrs by western blot analysis; format: functional, cell-based; conditions: dose 5-20 µM, DDE = dose-dependent effect
[11] = Cytotoxicity against mouse HT-22 cells assessed as reduction in cell viability by MTT assay; format: toxicity, cell-based
PC-12 [12] = assay: Neuroprotective activity against H2O2-induced cytotoxicity in rat PC-12 cells assessed as increase in cell viability at 10 uM by MTT assay relative to control; format: functional
[13] = Effect on tau protein expression in pRK5-GFP-Tau P301L plasmid transfected mouse HT-22 cells assessed as reduction in fluorescence intensity at 20 uM by fluorescence microscopic analysis (reference value: 35.0); format: functional
[14] = target: Amyloid-beta precursor protein (Homo sapiens) (UniProt P05067); assay: Inhibition of amyloid beta (1 to 42) (unknown origin) self-induced fibril formation at 25 uM incubated for 24 hrs by transmission electron microscopic analysis
[15] = Effect on tau protein expression in pRK5-GFP-Tau P301L plasmid transfected mouse HT-22 cells assessed as reduction in fluorescence intensity at 10 uM by fluorescence microscopic analysis (reference value: 35.0); format: functional
[16] = Effect on tau protein expression in pRK5-GFP-Tau P301L plasmid transfected mouse HT-22 cells assessed as reduction in fluorescence intensity at 5 uM by fluorescence microscopic analysis (reference value: 35.0); format: functional
PC-12 [17] = assay: Cytotoxicity against rat PC-12 cells assessed as reduction in cell viability measured upto 40 uM incubated for 72 hrs by MTT assay; format: toxicity, cell-based; conditions: pc-12, 72 h
[18] = Effect on APP protein expression in pEGFP-N1-APP plasmid transfected mouse HT-22 cells assessed as decrease in fluorescence intensity at 20 uM incubated for 24 hrs by fluorescence microscopic analysis (reference value: 30.7); format: functional
[19] = Effect on tau protein expression in pRK5-GFP-Tau plasmid transfected mouse HT-22 cells assessed as reduction in fluorescence intensity at 10 uM incubated for 24 hrs by fluorescence microscopic analysis (reference value: 36.8); format: functional
[20] = Effect on APP protein expression in pEGFP-N1-APP plasmid transfected mouse HT-22 cells assessed as decrease in fluorescence intensity at 10 uM incubated for 24 hrs by fluorescence microscopic analysis (reference value: 30.7); format: functional
[21] = Effect on APP protein expression in pEGFP-N1-APP plasmid transfected mouse HT-22 cells assessed as decrease in fluorescence intensity at 5 uM incubated for 24 hrs by fluorescence microscopic analysis (reference value: 30.7); format: functional
HT-22 [22] = assay: Effect on tau protein expression in pRK5-GFP-Tau plasmid transfected mouse HT-22 cells assessed as fluorescence intensity by measuring decrease in GFP level at 5 to 20 uM incubated for 24 hrs by western blot analysis; format: functional, cell-based; conditions: dose 5-20 µM

| Compound | IC50 (Acetylcholinesterase [2]) | IC50 (Butyrylcholinesterase) | Ratio IC50 (Rattus norvegicus) | Activity [3] | other results |
| --- | --- | --- | --- | --- | --- |
| CCN(C)C(=O)Oc1cccc([C@H](C)N(C)C)c1 |  |  |  |  | Activity (Acetylcholinesterase [1]): 76.3% |
| CCN(C)C(=O)Oc1ccc(-c2coc3cc(OC(=O)N(C)CC)cc(OC(=O)N(C)CC)c3c2=O)cc1 | 8.7 µM | 16.9 µM | 1.9 | 0.3 |  |
| CCN(C)C(=O)Oc1ccc(-c2cc(=O)c3c(OC(=O)N(C)CC)cc(OC(=O)N(C)CC)cc3o2)cc1 | 6.9 µM | 14.3 µM | 2.1 | 0.2 | IC50 (Acetylcholinesterase [4]): 12.3 µM; IC50 (Cholinesterase): 20.6 µM; Ratio IC50 (Homo sapiens): 1.7 |
| CCN(C)C(=O)Oc1ccc(-c2cc(=O)c3c(O)cc(OC(=O)N(C)CC)cc3o2)cc1 | 5.7 µM | 15.6 µM | 2.7 | 1.3 | IC50 (Acetylcholinesterase [4]): 7.9 µM; IC50 (Cholinesterase): 18.7 µM; Ratio IC50 (Homo sapiens): 2.4 |
| CON(C)C(=O)Oc1ccc(-c2coc3cc(OC(=O)N(C)OC)cc(O)c3c2=O)cc1 | 13.5 µM | 27.1 µM | 2 | 1 |  |
| CCN(C)C(=O)Oc1cc(O)c2c(c1)OC(c1ccc(O)cc1)CC2=O (stereo not given) | 11.6 µM | 28.2 µM | 2.4 | 2.7 |  |
| O=C1CC(c2ccc(OC(=O)N3CCOCC3)cc2)Oc2cc(OC(=O)N3CCOCC3)cc(O)c21 (stereo not given) | 11.3 µM | 23.6 µM | 2.1 | 1 |  |
| O=C1CC(c2ccc(OC(=O)N3CCCC3)cc2)Oc2cc(OC(=O)N3CCCC3)cc(O)c21 (stereo not given) | 14.5 µM | 19.8 µM | 1.4 | 1.1 |  |
| CON(C)C(=O)Oc1ccc(C2CC(=O)c3c(O)cc(OC(=O)N(C)OC)cc3O2)cc1 (stereo not given) | 9.9 µM | 18.1 µM | 1.8 | 1.2 |  |
| CON(C)C(=O)Oc1ccc(-c2cc(=O)c3c(O)cc(OC(=O)N(C)OC)cc3o2)cc1 | 9.3 µM | 19.7 µM | 2.1 | 1.1 |  |
| VITAMIN E |  |  |  |  | Activity (PC-12 [5]): 67.3% |
| CCN(C)C(=O)Oc1ccc(C2CC(=O)c3c(OC(=O)N(C)CC)cc(OC(=O)N(C)CC)cc3O2)cc1 (stereo not given) | 6.7 µM | 20.2 µM |  | 0.2 | inhibition [6]: 42.1%; Flu intensity [7]: 6.48; IC50 (Acetylcholinesterase [4]): 10.6 µM; Flu intensity [8]: 23.7; Activity (PC-12 [9]): 59.3%; Activity (Acetylcholinesterase [1]): 75.9%; Activity (HT-22 [10]): Dde; IC50 [11]: 215 µM; IC50 (Cholinesterase): 24.5 µM; Activity (PC-12 [12]): 64.1%; Flu intensity [13]: 16; inhibition [14]: Active; Flu intensity [15]: 17.6; Flu intensity [16]: 18.7; Activity (PC-12 [17]): Non-Toxic; Flu intensity [18]: 20.7; Flu intensity [19]: 20.7; Flu intensity [20]: 22.1; Flu intensity [21]: 22.3; Activity (HT-22 [22]): Active |
| O=c1c(-c2ccc(O)cc2)coc2cc(O)cc(O)c12 [GENISTEIN] | > 50 µM | > 50 µM |  | 6.2 |  |
| O=c1cc(-c2ccc(O)cc2)oc2cc(O)cc(O)c12 [APIGENIN] | > 50 µM | > 50 µM |  | 5.5 |  |
| CCN(CC)C(=O)Oc1cc(O)c2c(c1)OC(c1ccc(O)cc1)CC2=O (stereo not given) | 15.1 µM | 26.7 µM | 1.8 | 2.5 |  |
| O=C1CC(c2ccc(OC(=O)N(c3ccccc3)c3ccccc3)cc2)Oc2cc(OC(=O)N(c3ccccc3)c3ccccc3)cc(O)c21 (stereo not given) | 18.2 µM | 25.2 µM | 1.4 | 1.1 |  |
| O=C1CC(c2ccc(O)cc2)Oc2cc(O)cc(O)c21 (stereo not given) | > 50 µM | > 50 µM |  | 5.1 |  |
| CN(C)C(=O)Oc1ccc(C2CC(=O)c3c(O)cc(OC(=O)N(C)C)cc3O2)cc1 (stereo not given) | 14.2 µM | 26.5 µM |  | 0.9 |  |
| CCN(C)C(=O)Oc1ccc(-c2coc3cc(OC(=O)N(C)CC)cc(O)c3c2=O)cc1 | 11.2 µM | 29.3 µM | 2.6 | 1.2 |  |
| CCN(CC)C(=O)Oc1ccc(C2CC(=O)c3c(O)cc(OC(=O)N(CC)CC)cc3O2)cc1 (stereo not given) | 10.7 µM | 22.4 µM | 2.1 | 1.1 |  |
